{"source": "patent US4962110A", "about": "“Pyridazinone derivatives” (Smith Kline & French Laboratories Limited, priority 1989, dated 1990)", "key": {"[1]": {"target": "PDE (Peak III)", "test": "Inhibition of phosphodiesterase PDE (Peak III) from cat heart", "conditions": "read-out: IC50 PDE (Peak III); 1 μM cyclic AMP, 37°, pH 7.5", "experimental": "(§1) The enzyme was assayed by incubation at 37° for 4-30 min in 50 mM Tris, 5 mM MgCl2, pH 7.5 with [3-H] cyclic nucleotide (4×10^5 disintegrations min^-1) and [14-C] nucleotide 5' monophosphate (3-10^3 disintegrations min^-1). The assay was stopped by boiling, and the [3-H] […] The reaction mixture was diluted with 0.5 ml 100 mM HEPES (N-2-Hydroxyethylpiperazine-N'-2-ethanesulfonic acid), 100 mM NaCl, pH 8.5, and applied to the column. […] The recovery of product as judged by [14-C] recovery was approximately 80%. All assays were linear with time of incubation and concentration of enzyme over the range used in these experiments."}, "[2]": {"system": "right ventricular strips (force of contraction)", "test": "Cardiac stimulant activity in vitro: force of contraction of electrically stimulated guinea pig ventricular strips", "set-up": "species or system Guinea pigs", "conditions": "Cavia porcellus, read-out: EC50 (50% increase in the force of contraction of the ventricular strips); guinea pig right ventricle strips, Krebs Henseleit, 37° C., 1.0 Hz, cumulative concentration response", "method": "CARDIAC STIMULANT ACTIVITY--IN VITRO\nThe compounds of formula (I) and their pharmaceutically acceptable salts are tested for cardiac stimulant activity following a procedure based on that of S. C. Verma and J. H. McNeill (J. Pharm & Exp. Therapeutics, 200, 352-362 (1977)). Guinea pigs (500-700 g) of either sex are sacrificed and the hearts are quickly removed and transferred to a dissecting dish containing oxygenated bathing fluid. While in the bathing medium, the right ventricle is cut into two strips. The strips are each suspended in a 50 ml bath containing Krebs Henseleit solution at 37° C., and the bath is bubbled with 95% oxygen and 5% carbon dioxide. The ventricular strips are electrically stimulated at a frequency of 1.0 Hz, at double the threshold voltage. A resting tension of 1.0 g is applied to the strips and the tension is kept constant by readjustment during an equilibration period of 60 minutes. The bathing fluid is frequently changed during this period. When a steady base line is obtained, a compound under test is added to the bathing fluid and a cumulative concentration response curve is plotted."}, "[3]": {"system": "PDE (Peak II)", "conditions": "in words", "experimental": "as §1"}, "[4]": {"system": "PDE (Peak I)", "test": "Characterisation of PDE (Peak I) from cat heart: substrate kinetics", "assay_type": "biochemical"}}}
{"compound": "Nc1cc(-c2ccncc2)c[nH]c1=O", "note": "[Amrinone]", "values": [{"measurement": "IC50", "setting": "[1]", "result": 51800, "unit": "nM"}]}
{"compound": "CC1CC(=O)NN=C1c1ccc(Nc2nc(=O)cc[nH]2)cc1", "note": "(centres unmarked) [Example 1, 6-[4-(1,4-Dihydro-4-oxo-2-pyrimidinylamino)phenyl]-5-methyl-4,5-dihydro-3(2H)-pyridazinone]", "values": [{"measurement": "IC50", "setting": "[1]", "result": 690, "unit": "nM"}, {"measurement": "EC50", "setting": "[2]", "result": 600, "unit": "nM"}]}
{"compound": "Cc1cc(=O)nc(Nc2ccc(C3=NNC(=O)CC3C)cc2)[nH]1", "note": "(centres unmarked) [Example 2, 6-[4-(1,4-Dihydro-6-methyl-4-oxo-2-pyrimidinylamino)phenyl]-5-methyl-4,5-dihydro-3(2H)-pyridazinone]", "values": [{"measurement": "IC50", "setting": "[1]", "result": 450, "unit": "nM"}]}
{"compound": "Cc1c[nH]c(Nc2ccc(C3=NNC(=O)CC3C)cc2)nc1=O", "note": "(centres unmarked) [Example 3, 6-[4-(1,4-Dihydro-5-methyl-4-oxo-2-pyrimidinylamino)-phenyl]-5-methyl-4,5-dihydro-3(2H)-pyridazinone]", "values": [{"measurement": "IC50", "setting": "[1]", "result": 1120, "unit": "nM"}]}
{"compound": "CC1CC(=O)NN=C1c1ccc(Nc2nc(=O)c3ccccc3[nH]2)cc1", "note": "(centres unmarked) [Example 4, 6-[4-(1,4-Dihydro-4-oxo-2-quinazolinylamino)phenyl]-5-methyl-4,5-dihydro-3(2H)-pyridazinone]", "values": [{"measurement": "IC50", "setting": "[1]", "result": 150, "unit": "nM"}]}
{"compound": "Cc1[nH]c(=O)c(C#N)cc1-c1ccncc1", "note": "[Milrinone]", "values": [{"measurement": "IC50", "setting": "[1]", "result": 2200, "unit": "nM"}]}
{"compound": "Nc1nc2c(ncn2[C@@H]2O[C@@H]3COP(=O)(O)O[C@H]3[C@H]2O)c(=O)[nH]1", "note": "[cyclic GMP]", "values": [{"measurement": "affinity", "setting": "[3]", "result": "relatively low affinities"}, {"measurement": "affinity", "setting": "[4]; in words", "result": "high affinity"}, {"measurement": "Km", "setting": "[4]; with 50 μg/ml calmodulin", "result": 1.4, "unit": "µM"}, {"measurement": "Relative Vmax", "setting": "[4]; with 50 μg/ml calmodulin", "result": 7.2}]}
